Test [1] has as its system panel of 290 distinct kinases (321 in the larger panel), excluding mutant variants. Particulars: kinase selectivity score, class symbols.
For test [2], the target named is RAF kinases (Homo sapiens (Human), UniProt P04049). As to conditions: read-out: RAF1 Kd, class symbols.
In test [3] the target is wild type BRAF kinase (Homo sapiens (Human), UniProt P15056). As to conditions: read-out: BRAF WT Kd, class symbols.
For test [4], the target named is mutant BRAF kinase (Homo sapiens (Human), UniProt P15056, V600E). As to conditions: read-out: BRAF V600E Kd, class symbols.
Sequence of mutant BRAF kinase (P15056 whole entry V600E): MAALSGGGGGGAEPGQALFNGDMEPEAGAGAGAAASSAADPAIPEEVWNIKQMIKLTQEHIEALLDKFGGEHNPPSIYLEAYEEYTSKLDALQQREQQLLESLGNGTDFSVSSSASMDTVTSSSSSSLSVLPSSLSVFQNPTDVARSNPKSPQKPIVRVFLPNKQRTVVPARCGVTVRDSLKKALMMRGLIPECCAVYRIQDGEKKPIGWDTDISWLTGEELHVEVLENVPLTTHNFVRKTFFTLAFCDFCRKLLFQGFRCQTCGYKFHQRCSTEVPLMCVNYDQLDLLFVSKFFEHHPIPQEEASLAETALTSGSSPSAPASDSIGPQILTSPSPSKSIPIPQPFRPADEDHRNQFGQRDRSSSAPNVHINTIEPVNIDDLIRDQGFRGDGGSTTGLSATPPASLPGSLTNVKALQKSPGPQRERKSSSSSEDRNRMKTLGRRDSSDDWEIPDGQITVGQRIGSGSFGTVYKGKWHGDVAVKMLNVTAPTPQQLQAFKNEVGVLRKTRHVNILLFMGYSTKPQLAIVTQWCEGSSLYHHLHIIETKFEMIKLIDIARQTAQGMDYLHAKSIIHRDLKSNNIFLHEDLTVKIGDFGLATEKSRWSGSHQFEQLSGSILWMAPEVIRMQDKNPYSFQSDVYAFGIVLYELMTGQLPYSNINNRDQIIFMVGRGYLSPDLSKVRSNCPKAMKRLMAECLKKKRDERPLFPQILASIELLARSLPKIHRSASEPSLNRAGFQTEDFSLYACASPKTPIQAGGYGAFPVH
Where [5] appears, read: value marked * (larger kinase panel).

Where a name gives a salt, the structure may show the parent alone. Read-outs that look alike come from different tables or passages of the source. Bounds are passed on as bounds.

Sequence of wild type BRAF kinase (P15056 whole entry): as the sequence (P15056 whole entry V600E) above, with E600V counted along it
Sequence of RAF kinases (P04049 whole entry): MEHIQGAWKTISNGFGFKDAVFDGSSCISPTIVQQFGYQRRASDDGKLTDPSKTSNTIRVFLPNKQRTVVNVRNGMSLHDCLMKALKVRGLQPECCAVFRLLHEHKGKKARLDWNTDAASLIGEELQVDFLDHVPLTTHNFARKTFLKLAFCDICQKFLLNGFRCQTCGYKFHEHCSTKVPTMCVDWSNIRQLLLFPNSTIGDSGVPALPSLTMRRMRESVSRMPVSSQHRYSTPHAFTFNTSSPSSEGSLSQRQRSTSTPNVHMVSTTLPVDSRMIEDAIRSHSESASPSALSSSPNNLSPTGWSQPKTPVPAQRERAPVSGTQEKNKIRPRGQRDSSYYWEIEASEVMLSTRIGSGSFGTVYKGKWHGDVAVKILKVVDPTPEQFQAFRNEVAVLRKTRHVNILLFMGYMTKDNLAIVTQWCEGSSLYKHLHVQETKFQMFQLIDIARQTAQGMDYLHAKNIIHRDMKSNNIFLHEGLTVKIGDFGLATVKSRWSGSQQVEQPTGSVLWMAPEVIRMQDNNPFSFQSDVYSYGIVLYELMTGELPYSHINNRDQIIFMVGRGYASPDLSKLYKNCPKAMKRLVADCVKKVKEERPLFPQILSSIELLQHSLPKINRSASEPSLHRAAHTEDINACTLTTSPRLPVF

As to `COc1cc2ncnc(Oc3cc(NC(=O)Nc4cc(C(C)(C)C)on4)ccc3Cl)c2cc1OC` [Ex 10, 1-(5-tert-butylisoxazol-3-yl)-3-(4-chloro-3-(6,7-dimethoxyquinazolin-4-yloxy)phenyl)urea], the S35 entry in test [1] (290 distinct kinases) was “C (0.20 < C ≦ 0.40)”. Besides, the Kd in test [2] and in test [3] was above 1000 nM in each case.

On to `CCOc1cc2ncnc(Oc3cccc(NC(=O)Nc4cc(C(C)(C)C)on4)c3)c2cc1OCC` [Ex 13, 1-(5-tert-butylisoxazol-3-yl)-3-[3-(6,7-diethoxyquinazolin-4-yloxy)phenyl]urea hydrochloride], for which the S35 entry in test [1] (290 distinct kinases) is “C (0.20 < C ≦ 0.40)”. The Kd in test [2] and in test [3] was above 1000 nM each time.

For the compound `COCCOc1ccc2ncnc(Oc3cccc(NC(=O)Nc4cc(C(C)(C)C)on4)c3)c2c1` [Ex 40, 1-(5-tert-butylisoxazol-3-yl)-3-(3-(6-(2-methoxyethoxy)quinazolin-4-yloxy)phenyl)urea], the S35 entry in test [1] (290 distinct kinases) is recorded as “C (0.20 < C ≦ 0.40)”. The Kd in test [4] was below 250 nM; in test [3] it was above 1000 nM.

For `CC(C)(C)c1cc(NC(=O)Nc2cccc(Sc3ncnc4cc(F)c(F)cc34)c2)no1` [Ex 47, 1-(5-tert-butylisoxazol-3-yl)-3-(3-(6,7-difluoroquinazolin-4-ylthio)phenyl)urea], the S35 result in test [1] (290 distinct kinases) is given as “A (A ≦ 0.10)”. Moreover, the Kd in test [2] and in test [3] was above 1000 nM each time.

Take `COc1ccc2c(Sc3cccc(NC(=O)Nc4cc(C(C)(C)C)on4)c3)ncnc2c1` [Ex 48, 1-(5-tert-butylisoxazol-3-yl)-3-(3-(7-methoxyquinazolin-4-ylthio)phenyl)urea]: the S35 entry in test [1] (290 distinct kinases) is given as “C (0.20 < C ≦ 0.40)”. Moreover, the Kd in test [2] and in test [3] was above 1000 nM throughout.

On to `CCOc1cc2ncnc(Sc3cccc(NC(=O)Nc4cc(C(C)(C)C)on4)c3)c2cc1OCC` [Ex 51, 1-(5-tert-butylisoxazol-3-yl)-3-[3-(6,7-diethoxyquinazolin-4-ylthio)phenyl]urea], for which, in test [1] (290 distinct kinases), the S35 result was “C (0.20 < C ≦ 0.40)”. Also, the Kd in test [2] and in test [3] was above 1000 nM throughout.

In the case of `CC(C)(C)c1cc(NC(=O)Nc2cccc(Sc3ncnc4cc5c(cc34)OCCO5)c2)no1` [Ex 54, 1-(5-tert-butylisoxazol-3-yl)-3-[3-(7,8-dihydro-[1,4]dioxino[2,3-g]quinazolin-4-ylthio)phenyl]urea hydrochloride], in test [1] (290 distinct kinases), the S35 result is “C (0.20 < C ≦ 0.40)”. In addition, the Kd in test [2] and in test [3] was above 1000 nM each time.

`COc1cc2ncnc(Sc3cccc(NC(=O)Nc4cc(C(C)(C)C)on4)c3)c2cc1OCCN1CCCCC1` [Ex 65, 1-(5-tert-butylisoxazol-3-yl)-3-(3-(7-methoxy-6-(2-(piperidin-1-yl)ethoxy)quinazolin-4-ylthio)phenyl)urea]: the S35 result in test [1] (290 distinct kinases) is on record as “C (0.20 < C ≦ 0.40)”. Besides, the Kd in test [4] is below 250 nM; in test [3], above 1000 nM.

Regarding `COc1cc2c(Oc3cccc(NC(=O)Nc4cc(C(C)(C)C)on4)c3)ncnc2cc1O[C@H]1CCN(CC(F)F)C1` [Ex 103, (S)-1-(5-tert-butylisoxazol-3-yl)-3-(3-{7-[1-(2,2-difluoroethyl)pyrrolidin-3-yloxy]-6-methoxyquinazolin-4-yloxy}phenyl)urea], the S35 entry in test [1] (setting [5]) is “C* (0.20 < C ≦ 0.40)”. Also, the Kd in test [2] and in test [3] was above 1000 nM each time.

For the compound `COc1cc2ncnc(Oc3cccc(NC(=O)Nc4cc(CN5CCOCC5)cc(C(F)(F)F)c4)c3)c2cc1OC` [Ex 151, 1-(3-(6,7-dimethoxyquinazolin-4-yloxy)phenyl)-3-(3-(morpholinomethyl)-5-(trifluoromethyl)phenyl)urea], in test [1] (setting [5]), the S35 result was “C* (0.20 < C ≦ 0.40)”. Also, the dissociation constant Kd in test [4] is below 250 nM; in test [3], above 1000 nM.

Consider `COc1cc2ncnc(Oc3cccc(NC(=O)Nc4cc(C(C)(C)C)nn4C)c3)c2cc1OC` [Ex 158, 1-(3-tert-butyl-1-methyl-1H-pyrazol-5-yl)-3-(3-(6,7-dimethoxyquinazolin-4-yloxy)phenyl)urea], for which, in test [1] (setting [5]), the S35 entry was “C* (0.20 < C ≦ 0.40)”. Moreover, the figures for the Kd in test [4] and in test [3] were below 250 nM and above 1000 nM, respectively.

In general, Kd refers to a measure of binding affinity in units of concentration.

(Values after patent US9730937B2, “RAF kinase modulator compounds and methods of use thereof” (AMBIT BIOSCIENCES CORPORATION, priority 2008, dated 2017).)
